Source: patent publication US20220323406A1, “METHODS AND COMPOSITIONS FOR DIFFERENTIATING STEM CELLS” (Massachusetts Institute of Technology, priority 2019, published 2022)

Tests used:
[1] = tested on: ENR+CD organoids (ISC to Paneth cell differentiation); assay: Secondary (validation) screen: LYZ.S CCh-stimulated lysozyme secretion, 2.5-D 384-well ENR+CD organoids; format: cell-based, mouse; details: 6-day ENR+CD, vs ENR+CD+DMSO
Protocol: (§1) Drugs were tested at a narrowed dose range around each treatment's identified optimal dose from the primary screen (4× below, 2× above and below).
(§2) High-throughput screening.
(§3) Secondary lysozyme secretion assay screen. Confirmatory secondary screening with primary hits was performed using the above 384-well plate method. The screen was conducted with 4-plate replicates with a base media of ENR+CD. Media was supplemented with compound at day 0 and day 3 (n=8 well replicates per dose) at four different doses: two-fold above, two-fold below, and four-fold below the optimal final dose for each respective treatment. Additionally, each plate carried a large number of ENR+DMSO or ENR+CD+DMSO (vehicle) control wells (n=100 for ATP, and n=25 for LYZ.NS and LYZ.S) for robust normalization. ATP, non-stimulated lysozyme activity and CCh-stimulated lysozyme activity was again measured and the collected data was again processed in a custom R-script, per primary screen with slight modification. Values were log10 transformed, and a plate-wise FC was calculated for each well based on the median value of ENR+CD+DMSO (vehicle) control wells to normalize plate to plate variability.

[2] = tested on: ENR+CD organoids (ISC to Paneth cell differentiation); assay: Primary screen: CCh-stimulated lysozyme secretion LYZ.S, 2.5-D 384-well ENR+CD organoid differentiation; format: cell-based, mouse; details: primary screen
Description: as §2

[3] = tested on: ENR+CD organoids (ISC to Paneth cell differentiation); assay: Secondary (validation) screen: LYZ.NS basal lysozyme secretion, 2.5-D 384-well ENR+CD organoids; format: cell-based, mouse; details: for Dose.FC.LYZ.NS: 6-day ENR+CD, vs ENR+CD+DMSO
Protocol: as §1, §2, §3

ENR+CD organoids [4] = assay: Secondary (validation) screen: ATP (CTG) assay, 2.5-D 384-well ENR+CD organoids; format: cell-based, mouse; details: 6-day ENR+CD, vs ENR+CD+DMSO
Protocol: as §1, §2, §3

[5] = tested on: ENR+CD organoids (ISC to Paneth cell differentiation); assay: Primary screen: basal (non-stimulated) lysozyme secretion LYZ.NS, 2.5-D 384-well ENR+CD organoid differentiation; format: cell-based, mouse
Description: as §2

ENR+CD organoids [6] = assay: Primary screen: ATP (CellTiter-Glo 3D, CTG) cell number/viability, 2.5-D 384-well ENR+CD organoids; details: primary screen;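 note: compounds given at plating and again on day 3 over a 6-day differentiation from ENR+CV stem-cell-enriched precursors, ATP measured on day 6, plate median as control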
[7] = dose 0.08 uM, FC vs plate median
[8] = dose 0.40 uM, FC vs plate median
[9] = dose 2.00 uM, FC vs plate median
[10] = dose 10.00 uM, FC vs plate median

## CC(C)(C)NC(=O)[C@H]1CC[C@H]2[C@@H]3CC[C@H]4NC(=O)C=C[C@]4(C)[C@H]3CC[C@]12C [Finasteride, reference compound]
[1]; 0.02 uM
  Dose.FC.LYZ.S: −0.019 log2 fold change
[1]; 0.04 uM
  Dose.FC.LYZ.S: −0.260 log2 fold change
[1]; 0.08 uM
  Dose.FC.LYZ.S: −0.242 log2 fold change
[1]; […]
  Dose.FC.LYZ.S: −0.253 log2 fold change
[2]; dose 0.08 uM
  Dose.FC.LYZ.S: 0.199 log2 fold change
[2]; dose 0.40 uM
  Dose.FC.LYZ.S: 0.211 log2 fold change
[2]; dose 2.00 uM
  Dose.FC.LYZ.S: 0.156 log2 fold change
[2]; dose 10.00 uM
  Dose.FC.LYZ.S: 0.056 log2 fold change
[3]; 0.02 uM
  Dose.FC.LYZ.NS: 0.056 log2 fold change
[3]; 0.04 uM
  Dose.FC.LYZ.NS: −0.189 log2 fold change
[3]; 0.08 uM
  Dose.FC.LYZ.NS: −0.191 log2 fold change
[3]; […]
  Dose.FC.LYZ.NS: −0.203 log2 fold change
ENR+CD organoids [4]; 0.02 uM
  Dose.FC.CTG: 0.066 log2 fold change
ENR+CD organoids [4]; 0.04 uM
  Dose.FC.CTG: −0.180 log2 fold change
ENR+CD organoids [4]; 0.08 uM
  Dose.FC.CTG: −0.011 log2 fold change
ENR+CD organoids [4]; […]
  Dose.FC.CTG: −0.065 log2 fold change
[5]; LYZ.NS and LYZ.S; 0.08-10 uM, 6 days ENR+CD
  primary screen hit call (SSMD and z-scored FC cutoffs in both LYZ assays): sole hit in their respective pathway
[5]; primary screen, dose 0.08 uM
  Dose.FC.LYZ.NS: 0.205 log2 fold change
[5]; primary screen, dose 0.40 uM
  Dose.FC.LYZ.NS: 0.213 log2 fold change
[5]; primary screen, dose 2.00 uM
  Dose.FC.LYZ.NS: 0.142 log2 fold change
[5]; primary screen, dose 10.00 uM
  Dose.FC.LYZ.NS: 0.067 log2 fold change
[5]; primary screen, standard z score, dose 0.08 uM
  Z.LYZ.NS: 1.781
[5]; primary screen, standard z score, dose 0.40 uM
  Z.LYZ.NS: 1.852
[5]; primary screen, standard z score, dose 2.00 uM
  Z.LYZ.NS: 1.236
[5]; primary screen, standard z score, dose 10.00 uM
  Z.LYZ.NS: 0.587
ENR+CD organoids [6]; dose 0.08 uM
  Dose.FC.CTG: 0.151 log2 fold change
ENR+CD organoids [6]; dose 0.40 uM
  Dose.FC.CTG: −0.038 log2 fold change
ENR+CD organoids [6]; dose 2.00 uM
  Dose.FC.CTG: 0.073 log2 fold change
ENR+CD organoids [6]; dose 10.00 uM
  Dose.FC.CTG: −0.041 log2 fold change

## Cc1cn(-c2cc(NC(=O)c3ccc(C)c(Nc4nccc(-c5cccnc5)n4)c3)cc(C(F)(F)F)c2)cn1 [Nilotinib (AMN-107), Nilotinib, reference compound]
[1]; 0.10 uM
  Dose.FC.LYZ.S: 0.044 log2 fold change
[1]; 0.20 uM
  Dose.FC.LYZ.S: 0.117 log2 fold change
[1]; 0.40 uM
  Dose.FC.LYZ.S: −0.007 log2 fold change
[1]; 0.80 uM
  Dose.FC.LYZ.S: 0.143 log2 fold change
[2]; [7]
  Dose.FC.LYZ.S: 0.235 log2 fold change
[2]; [8]
  Dose.FC.LYZ.S: 0.293 log2 fold change
[2]; [9]
  Dose.FC.LYZ.S: 0.033 log2 fold change
[2]; [10]
  Dose.FC.LYZ.S: −0.197 log2 fold change
[3]; 0.10 uM
  Dose.FC.LYZ.NS: 0.092 log2 fold change
[3]; 0.20 uM
  Dose.FC.LYZ.NS: 0.161 log2 fold change
[3]; 0.40 uM
  Dose.FC.LYZ.NS: 0.101 log2 fold change
[3]; 0.80 uM
  Dose.FC.LYZ.NS: 0.165 log2 fold change
[3]; LYZ.NS and LYZ.S
  validated doses in secondary screen (SSMD above cutoff in both LYZ assays): multiple validated doses
[3]; LYZ.NS and LYZ.S mean fold change
  biological potency compared with Bosutinib: more biologically potent
ENR+CD organoids [4]; 0.10 uM
  Dose.FC.CTG: 0.092 log2 fold change
ENR+CD organoids [4]; 0.20 uM
  Dose.FC.CTG: 0.122 log2 fold change
ENR+CD organoids [4]; 0.40 uM
  Dose.FC.CTG: 0.141 log2 fold change
ENR+CD organoids [4]; 0.80 uM
  Dose.FC.CTG: 0.233 log2 fold change
[5]; primary screen, dose 0.08 uM, standard z score
  Z.LYZ.NS: 1.703
[5]; primary screen, dose 0.40 uM, standard z score
  Z.LYZ.NS: 1.412
[5]; primary screen, dose 2.00 uM, standard z score
  Z.LYZ.NS: 0.742
[5]; primary screen, dose 10.00 uM, standard z score
  Z.LYZ.NS: −0.806
[5]; primary screen; dose 0.08 uM; FC vs plate median
  Dose.FC.LYZ.NS: 0.196 log2 fold change
[5]; primary screen; dose 0.40 uM; FC vs plate median
  Dose.FC.LYZ.NS: 0.162 log2 fold change
[5]; primary screen; dose 2.00 uM; FC vs plate median
  Dose.FC.LYZ.NS: 0.085 log2 fold change
[5]; primary screen; dose 10.00 uM; FC vs plate median
  Dose.FC.LYZ.NS: −0.093 log2 fold change
ENR+CD organoids [6]; [7]
  Dose.FC.CTG: 0.322 log2 fold change
ENR+CD organoids [6]; [8]
  Dose.FC.CTG: 0.348 log2 fold change
ENR+CD organoids [6]; [9]
  Dose.FC.CTG: 0.242 log2 fold change
ENR+CD organoids [6]; [10]
  Dose.FC.CTG: −0.012 log2 fold change
